According to US11845084B2, “Microchip high density hanging drop three-dimension culture platform” (The Board of Trustees of the University of Illinois, priority 2020, dated 2023):

Key:
[1] = test system: LN229 microcancer spheroids; assay: On-chip drug testing of LN229 microcancer spheroids in microchip hanging drop 3D culture; format: cell-based; settings: Homo sapiens, LN-229; measured on day 9 post cell seeding; drug loaded on day 3; 500 cells/well; 12 wells per concentration, 10 uM to 100 pM
Source text: In contrast, conventional hanging drop methods used to extract the formed tumor spheroids and then performing an end-point only analysis in a separate well plate. Dasatinib was selected for drug testing, and introduced after 3 days of culture in the chip. […] One process for introducing the drugs on chip is as follows. The chip was kept upright inside mineral oil and centrifuged briefly to bring down the spheroids. Next, appropriate volume of media with drugs is loaded on chip through oil and incubated for 30 minutes to reach a homogeneous concentration. […] The chip was partitioned as before by using oil, inverted, and daily measurements of green and red fluorescence were taken. […]
The total number of cells were extracted from the off-chip culture into a 1.7 mL tube and then centrifuged at 200 g for 5 min so that all cells settle to the bottom of the tube. […] To stop the PKH 26 Red Fluorescence staining, media with FBS was added to the cell and dye solution. […]
Spheroid Imaging: Real time imaging was done daily after seeding with an upright Olympus BX63 fluorescence microscope with a 10× objective (0.3 NA). […] Tiles and Z-stacks of 10 um slice thickness of the area with spheroids or shapes were taken of chips in bright-field, GFP and RFP fluorescence wavelengths. The CellTox green fluorescence dye was captured using the GFP fluorescence and the PKH Red dye was captured using the RFP. […]

[2] = test system: PDX microcancers (GBM8 patient-derived xenograft glioblastoma cells); assay: On-chip drug testing of PDX microcancer spheroids in microchip hanging drop 3D culture; format: cell-based; settings: Homo sapiens; measured on day 9 post cell seeding; drug loaded on day 3; 500 cells/well; 12 wells per concentration, 10 uM to 100 pM
Protocol: The harvest cells from the xenograft represented the cellular diversity of the PDX brain tumor.
Dasatinib was selected for drug testing, and introduced after 3 days of culture in the chip. […] One process for introducing the drugs on chip is as follows. The chip was kept upright inside mineral oil and centrifuged briefly to bring down the spheroids. Next, appropriate volume of media with drugs is loaded on chip through oil and incubated for 30 minutes to reach a homogeneous concentration. The volume of drugs loaded depends on the number of spheroids being cultured or wells filled with media on chip, which in turn, are defined by the size and numbers of PDMS reservoirs initially used for cell seeding. The volume of media with drugs added is usually 5 times the volume of wells containing spheroids. […] The chip was partitioned as before by using oil, inverted, and daily measurements of green and red fluorescence were taken.

Compound: Cc1nc(Nc2ncc(C(=O)Nc3c(C)cccc3Cl)s2)cc(N2CCN(CCO)CC2)n1 [Dasatinib]
- IC50 [1]: 95.9 nM
- IC50 [2]: 13.8 nM
